The values that follow come from ChEMBL document CHEMBL1667824 (Bioorg Med Chem, 2011).

pKi: −log10 of the molar value.

Assay [1] addresses T1, Lactoylglutathione lyase (Homo sapiens, UniProt Q04760). Briefly: Inhibition of human recombinant His-tagged glyoxalase 1 expressed in Escherichia coli BL21 (DE3) preincubated for 20 mins by Dixon plot analysis.
The target of assay [2] is T1, Lactoylglutathione lyase. Briefly: Inhibition of glyoxalase 1.

T1 sequence (Q04760 whole entry): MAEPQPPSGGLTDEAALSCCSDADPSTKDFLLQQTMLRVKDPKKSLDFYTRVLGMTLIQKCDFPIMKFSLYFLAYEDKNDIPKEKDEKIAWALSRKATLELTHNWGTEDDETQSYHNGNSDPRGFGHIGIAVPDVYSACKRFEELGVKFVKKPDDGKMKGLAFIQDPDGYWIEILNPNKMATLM

For orientation: pKi means the negative decadic logarithm of the Ki, by convention in mol/L. Take `COc1cc(/C=C/C(O)=C/C(C)=O)ccc1O`: the pKi on Lactoylglutathione lyase [1] is 4.05.

With `NC(=O)/C=C/c1ccc(F)cc1`, on Lactoylglutathione lyase [1], the pKi was 2.86.

With `COc1ccc(/C=C/C(=O)/C=C(O)/C=C/c2ccc(CO)o2)cc1`, the negative logarithm of the Ki (pKi) on Lactoylglutathione lyase [1] was 4.13.

With `Cc1cc(CC(=O)O)n(C)c1C(=O)c1ccc(Cl)cc1` [ZOMEPIRAC], the pKi at Lactoylglutathione lyase [1] is 3.47; on Lactoylglutathione lyase [2] it was 3.97.

As for `COC(=O)/C=C/c1ccc(F)cc1`, on Lactoylglutathione lyase [1], the pKi was 2.72.

With `COc1cc(/C=C/C(O)=C/C(=O)/C=C/c2ccc[nH]2)ccc1O`, on Lactoylglutathione lyase [1], the pKi was 4.74.

In the case of `COc1ccc(C=C(C(C)=O)C(C)=O)cc1`, the pKi at Lactoylglutathione lyase [1] was 3.42.

With `O=C(O)C(=Cc1cccc([N+](=O)[O-])c1)C(=O)O`, the negative logarithm of the Ki (pKi) at Lactoylglutathione lyase [1] was 3.37.

Take `O=C(/C=C(O)/C=C/c1ccco1)/C=C/c1ccco1`: the pKi at Lactoylglutathione lyase [1] was 2.82.

Regarding `CCOC(=O)/C(=C\c1cccc([N+](=O)[O-])c1)C(C)=O`, at Lactoylglutathione lyase [1], the pKi was 4.19.

Take `CC(=O)C(=Cc1cccc([N+](=O)[O-])c1)C(C)=O`: the pKi at Lactoylglutathione lyase [1] is 4.04.

On to `COc1cc(/C=C/C(=O)C(=Cc2ccc(OC)c(OC)c2)C(=O)/C=C/c2ccc(O)c(OC)c2)ccc1O`, for which, at Lactoylglutathione lyase [1], the pKi is 5.34.

As for `O=C(/C=C/c1ccc(O)cc1)CC(=O)/C=C/c1ccc(O)cc1` [BISDEMETHOXYCURCUMIN], the pKi at Lactoylglutathione lyase [1] was 4.74.

Regarding `O=C(/C=C(O)/C=C/c1ccc(F)cc1)/C=C/c1ccc(F)cc1`, the pKi at Lactoylglutathione lyase [1] was 5.34.

For the compound `COc1ccc2c(c1)c(CC(=O)O)c(C)n2C(=O)c1ccc(Cl)cc1` [INDOMETHACIN], the values for the pKi at Lactoylglutathione lyase [1] and on Lactoylglutathione lyase [2] were 4.62 and 4.74, respectively.

`COc1cc(C=C(C(=O)/C=C/c2ccc(O)c(OC)c2)C(=O)/C=C/c2ccc(O)c(OC)c2)ccc1O`: on Lactoylglutathione lyase [1], the pKi is 5.44.

For `COc1ccc2c(c1)c(CC(=O)OCC(=O)O)c(C)n2C(=O)c1ccc(Cl)cc1` [ACEMETACIN], the pKi on Lactoylglutathione lyase [1] is 4.31; at Lactoylglutathione lyase [2] it was 4.89.

For `COc1ccc(/C=C/C(=O)C(=Cc2ccc(C=O)c(C=O)c2)C(=O)/C=C/c2ccc(OC)c(OC)c2)cc1OC`, the pKi at Lactoylglutathione lyase [1] was 5.44.

`COc1ccc(/C=C/C(=O)/C=C(O)/C=C/c2ccc(O)cc2)cc1OC`: the pKi on Lactoylglutathione lyase [1] was 4.54.

As for `CC(C(=O)O)c1cccc(Oc2ccccc2)c1` (configuration not stated) [FENOPROFEN], the negative logarithm of the Ki (pKi) at Lactoylglutathione lyase [1] was 3.42; at Lactoylglutathione lyase [2], 3.40.

On to `CCOC(=O)/C(=C\c1ccc([N+](=O)[O-])cc1)C(C)=O`, for which the pKi at Lactoylglutathione lyase [1] is 3.80.

For the compound `CC(=O)C(=Cc1ccc([N+](=O)[O-])o1)C(C)=O`, on Lactoylglutathione lyase [1], the pKi is 4.57.

For `COc1ccc(/C=C/C(=O)C(=CO)C(=O)/C=C/c2ccc(OC)cc2)cc1`, the negative logarithm of the Ki (pKi) on Lactoylglutathione lyase [1] is 3.96.

As for `COc1cc(/C=C/C(=O)C(=Cc2cccc(F)c2)C(=O)/C=C/c2ccc(O)c(OC)c2)ccc1O`, the negative-log Ki (pKi) on Lactoylglutathione lyase [1] is 5.59.

For `Cc1ccc(C(=O)c2ccc(CC(=O)O)n2C)cc1` [TOLMETIN], the pKi was 2.99 on Lactoylglutathione lyase [1] and 4.06 at Lactoylglutathione lyase [2].

Consider `CC(C(=O)O)c1cccc(C(=O)c2ccccc2)c1` (configuration not stated) [KETOPROFEN], for which the pKi at Lactoylglutathione lyase [1] was 3.07; on Lactoylglutathione lyase [2], 3.38.

`CCOC(=O)/C(=C\C=C(\C(C)=O)C(=O)OCC)C(C)=O`: the pKi at Lactoylglutathione lyase [1] is 4.41.

In the case of `COc1cc(/C=C/C(=O)C(=Cc2ccc(F)cc2)C(=O)/C=C/c2ccc(O)c(OC)c2)ccc1O`, on Lactoylglutathione lyase [1], the pKi is 5.49.

`CC1=C(CC(=O)O)c2cc(F)ccc2/C1=C\c1ccc([S+](C)[O-])cc1` (configuration not stated): the negative-log Ki (pKi) at Lactoylglutathione lyase [1] is 3.86; at Lactoylglutathione lyase [2] it was 4.11.

As to `CCOC(=O)/C=C/c1ccc(O)c(OC)c1` [ETHYL FERULATE], on Lactoylglutathione lyase [1], the pKi is 3.41.
